From patent US20250129103A1, “METHODS FOR TREATMENT OF CANCER” (Frontier Medicines Corporation, priority 2022, published 2025)
Values after ≈ are worked out from the molar mass of the structure shown.

Legend:
[1] = Determination of logD (1-octanol / phosphate buffer pH 7.4); assay type: physicochemical; settings: 1-octanol/phosphate buffer, pH 7.4, pH 7.4, 1-octanol/phosphate buffer; read-out: Log D, pH 7.4
Protocol: Preparation of phosphate buffer saturated with 1-octanol: 10 mL of 100 mM phosphate buffer (pH 7.4) was added to 100 mL of 1-octanol. The mixture was shaken vigorously and left to stand at room temperature overnight.
Preparation of 1-octanol saturated with phosphate buffer: 10 mL of 1-octanol was added to 100 mL of 100 mM phosphate buffer (pH 7.4). The mixture was shaken vigorously and left to stand at room temperature overnight.
149 μL of phosphate buffer saturated with 1-octanol was added into 1st sample tube. 149 μL of 1-octanol saturated with phosphate buffer was added into the 2nd sample tube. The sample tubes were mixed vigorously and shaken for 1 hour at a speed of 800 rpm at room temperature. The sample tubes were subjected to centrifugation at 4000 rpm for 5 minutes at room temperature. Samples of the supernatant were taken from both tubes, diluted with an appropriate LCMS buffer, and analyzed on an LCMS instrument. LogD was calculated according to the following equation.

[2] = Determination of kinetic solubility (pH 7.4); assay type: physicochemical; settings: phosphate buffer, pH 7.4, aqueous buffer, kinetic from dmso stock, 50 mM phosphate buffer pH 7.4, read-out: Ksol, pH 7.4
Protocol: 490 μL of a 50 mM phosphate buffer (pH 7.4) was added to the sample solution. The mixture was vortexed for at least 2 minutes. The vial was shaken on a Barnstead shaker at 800 rpm at room temperature for 2 hours. The vial was centrifuged at 4000 rpm for 20 minutes. The Mini-UniPrep vial was compressed to prepare a filtrate, which was injected into an HPLC-UV and LC-MS/MS system. Kinetic solubility was calculated by referencing sample peak areas to a standard calibration curve.

[3] = biological target: KRAS G12C (GMPPNP-loaded) and cRAF (Ras-binding domain) interaction (Homo sapiens (Human), UniProt P01116, C118S/C51S/C80L/G12C); assay: Inhibition of KRAS G12C and cRAF binding (AlphaScreen); settings: KRAS G12C loaded with GMPPNP, cRaf RBD, 2 hours preincubation; read-out: Raf-1 RBD K-Ras IC50
Chain of KRAS G12C (GMPPNP-loaded) and cRAF (Ras-binding domain) interaction (P01116 other isoform, or with tags, fused parts or gaps G12C/C51S/C80L/C118S): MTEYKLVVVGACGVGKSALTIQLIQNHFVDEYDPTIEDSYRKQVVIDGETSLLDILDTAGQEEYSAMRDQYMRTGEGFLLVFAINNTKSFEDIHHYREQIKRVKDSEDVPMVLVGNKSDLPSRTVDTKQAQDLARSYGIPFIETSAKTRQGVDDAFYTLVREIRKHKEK
How it was run: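 AlphaScreen readout (680 nm excitation, 570 nm emission) of RBD binding after a 60-90 min bead step at room temperature. This step follows 2 h compound exposure of GMPPNP-preloaded KRAS G12C in Hepes pH 7.4 buffer with MgCl2 and 10 μM GMPPNP.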

Structure (SMILES)	logD [1]	solubility kinetic at 2 h [2]	IC50 [3]
CC1(c2noc(/C=C/C(=O)N3CCN(c4nc(OC[C@@]56CCCN5C[C@H](F)C6)nc5c(F)c(-c6cccc7cccc(Cl)c67)ncc45)C[C@@H]3CC#N)n2)CC1 [Compound 47]	4.59	0.01 µg/mL (≈ 0.0131 µM)	100 to 500 nM
N#CC[C@H]1CN(c2nc(OCC34CCCN3CCC4)nc3c2CCN(c2ccccc2C(F)F)C3)CCN1C(=O)/C=C/CN1CCOCC1 [Compound 61]	1.22	88.7 µg/mL (≈ 131 µM)	> 500 nM
CCc1c(F)ccc2cccc(-c3ncc4c(N5CCN(C(=O)/C=C/CN6[C@@H]7CC[C@H]6COC7)[C@@H](CC#N)C5)nc(OC[C@@]56CCCN5C[C@H](F)C6)nc4c3F)c12 [Compound 99, 2-((S)-1-((E)-4-((1R,5S)-3-oxa-8-azabicyclo[3.2.1]octan-8-yl)but-2-enoyl)-4-(7-(8-ethyl-7-fluoronaphthalen-1-yl)-8-fluoro-2-(((2R,7aS)-2-fluorotetrahydro-1H-pyrrolizin-7a(5H)-yl)methoxy)pyrido[4,3-d]pyrimidin-4-yl)piperazin-2-yl)acetonitrile]	3.4	78 µg/mL (≈ 99.8 µM)	< 10 nM
C#Cc1c(F)ccc2cccc(-c3ncc4c(N5CCN(C(=O)/C=C/CN6[C@@H]7CC[C@H]6COC7)[C@@H](CC#N)C5)nc(OC[C@@]56CCCN5C[C@H](F)C6)nc4c3F)c12 [Compound 107, 2-((S)-1-((E)-4-((1R,5S)-3-oxa-8-azabicyclo[3.2.1]octan-8-yl)but-2-enoyl)-4-(7-(8-ethynyl-7-fluoronaphthalen-1-yl)-8-fluoro-2-(((2R,7aS)-2-fluorotetrahydro-1H-pyrrolizin-7a(5H)-yl)methoxy)pyrido[4,3-d]pyrimidin-4-yl)piperazin-2-yl)acetonitrile]	2.93	132 µg/mL (≈ 170 µM)	< 10 nM
CN(C)C/C=C/C(=O)N1CCN(c2nc(OC[C@@]34CCCN3C[C@H](F)C4)nc3c(F)c(-c4cccc(Cl)c4C4CC4)ncc23)C[C@@H]1CC#N [Compound 115, 2-((S)-4-(7-(3-chloro-2-cyclopropylphenyl)-8-fluoro-2-(((2R,7aS)-2-fluorotetrahydro-1H-pyrrolizin-7a(5H)-yl)methoxy)pyrido[4,3-d]pyrimidin-4-yl)-1-((E)-4-(dimethylamino)but-2-enoyl)piperazin-2-yl)acetonitrile]	2.54	114 µg/mL (≈ 165 µM)	10 to 100 nM
Cn1cc(/C=C/C(=O)N2CCN(c3nc(OCC45CCCN4CCC5)nc4c3CCN(c3cccc5cccc(Cl)c35)C4)C[C@@H]2CC#N)nn1 [Compound 117]	2.65	112 µg/mL (≈ 161 µM)	> 500 nM
CC1(c2noc(/C=C/C(=O)N3CCN(c4nc(OCC56CCCN5CCC6)nc5c(F)c(-c6cccc7cccc(Cl)c67)ncc45)C[C@@H]3CC#N)n2)CC1 [Compound 118]	3.24	4.73 µg/mL (≈ 6.32 µM)	100 to 500 nM
CC(C)c1noc(/C=C/C(=O)N2CCN(c3nc(OCC45CCCN4CCC5)nc4c(F)c(-c5cccc6cccc(Cl)c56)ncc34)C[C@@H]2CC#N)n1 [Compound 120]	3.21	26.5 µg/mL (≈ 36 µM)	100 to 500 nM
CC(C)c1noc(/C=C/C(=O)N2CCN(c3nc(OC[C@@]45CCCN4C[C@H](F)C5)nc4c(F)c(-c5nc(N)cc6cccc(Cl)c56)ncc34)C[C@@H]2CC#N)n1 [Compound 122]	3.43	0.44 µg/mL (≈ 0.571 µM)	10 to 100 nM
Cc1cc(N)nc(-c2ncc3c(N4CCN(C(=O)/C=C/c5nc(C(C)C)no5)[C@@H](CC#N)C4)nc(OC[C@@]45CCCN4C[C@H](F)C5)nc3c2F)c1C(F)(F)F [Compound 135]	3.42	94.6 µg/mL (≈ 123 µM)	10 to 100 nM
Cc1nsc(/C=C/C(=O)N2CCN(c3nc(OC[C@@]45CCCN4C[C@H](F)C5)nc4c(F)c(-c5nc(N)cc(C)c5C(F)(F)F)ncc34)C[C@@H]2CC#N)n1 [Compound 142]	2.55	106 µg/mL (≈ 140 µM)	< 10 nM
Cc1nccc(/C=C/C(=O)N2CCN(c3nc(OC[C@@]45CCCN4C[C@H](F)C5)nc4c(F)c(-c5nc(N)cc(C)c5C(F)(F)F)ncc34)C[C@@H]2CC#N)n1 [Compound 145]	2.11	136 µg/mL (≈ 181 µM)	< 10 nM
Cc1nccc(/C=C/C(=O)N2CCN(c3nc(OC[C@@]45CCCN4C[C@H](F)C5)nc4c(F)c(-c5nc(N)cc6cccc(F)c56)ncc34)C[C@@H]2CC#N)n1 [Compound 146]	2.14	78.1 µg/mL (≈ 106 µM)	< 10 nM

Second part, the compound after the results:

logD [1]	solubility kinetic at 2 h [2]	IC50 [3]	Structure (SMILES)
1.08	94.8 µg/mL (≈ 128 µM)	< 10 nM	N#CC[C@H]1CN(c2nc(OC[C@@]34CCCN3C[C@H](F)C4)nc3c(F)c(-c4nc(N)cc5cccc(F)c45)ncc23)CCN1C(=O)/C=C/CN1CCOCC1 [Compound 60]
2.06	95.1 µg/mL (≈ 131 µM)	< 10 nM	N#CC[C@H]1CN(c2nc(OCC34CCCN3CCC4)nc3c2CCN(c2cccc4cccc(Cl)c24)C3)CCN1C(=O)/C=C/CN1C[C@@H]2C[C@H]1CO2 [Compound 62]
3.99	2.36 µg/mL (≈ 3.16 µM)	< 10 nM	Cc1cc(/C=C/C(=O)N2CCN(c3nc(OC[C@@]45CCCN4C[C@H](F)C5)nc4c(F)c(-c5cccc6ccc(F)c(C)c56)ncc34)C[C@@H]2CC#N)nc(C)n1 [Compound 105, 2-((S)-1-((E)-3-(2,6-dimethylpyrimidin-4-yl)acryloyl)-4-(8-fluoro-7-(7-fluoro-8-methylnaphthalen-1-yl)-2-(((2R,7aS)-2-fluorotetrahydro-1H-pyrrolizin-7a(5H)-yl)methoxy)pyrido[4,3-d]pyrimidin-4-yl)piperazin-2-yl)acetonitrile]
3	88 µg/mL (≈ 114 µM)	< 10 nM	N#CC[C@H]1CN(c2nc(OC[C@@]34CCCN3C[C@H](F)C4)nc3c(F)c(-c4cccc5cccc(Cl)c45)ncc23)CCN1C(=O)/C=C/CN1CC2CCC1CO2 (stereo partly drawn) [Compound 108, 2-((2S)-1-((E)-4-(2-oxa-5-azabicyclo[2.2.2]octan-5-yl)but-2-enoyl)-4-(7-(8-chloronaphthalen-1-yl)-8-fluoro-2-(((2R,7aS)-2-fluorohexahydro-1H-pyrrolizin-7a-yl)methoxy)pyrido[4,3-d]pyrimidin-4-yl)piperazin-2-yl)acetonitrile]
2.6	127 µg/mL (≈ 167 µM)	< 10 nM	N#CC[C@H]1CN(c2nc(OC[C@@]34CCCN3C[C@H](F)C4)nc3c(F)c(-c4cccc5cccc(Cl)c45)ncc23)CCN1C(=O)/C=C/CN1CCCOCC1 [Compound 109, 2-((S)-1-((E)-4-(1,4-oxazepan-4-yl)but-2-enoyl)-4-(7-(8-chloronaphthalen-1-yl)-8-fluoro-2-(((2R,7aS)-2-fluorohexahydro-1H-pyrrolizin-7a-yl)methoxy)pyrido[4,3-d]pyrimidin-4-yl)piperazin-2-yl)acetonitrile]
2.9	78.6 µg/mL (≈ 104 µM)	< 10 nM	N#CC[C@H]1CN(c2nc(OC[C@@]34CCCN3C[C@H](F)C4)nc3c(F)c(-c4cccc5ccc(F)c(F)c45)ncc23)CCN1C(=O)/C=C/CN1CCCOCC1 [Compound 110, 2-((S)-1-((E)-4-(1,4-oxazepan-4-yl)but-2-enoyl)-4-(7-(7,8-difluoronaphthalen-1-yl)-8-fluoro-2-(((2R,7aS)-2-fluorotetrahydro-1H-pyrrolizin-7a(5H)-yl)methoxy)pyrido[4,3-d]pyrimidin-4-yl)piperazin-2-yl)acetonitrile]
3.28	52.4 µg/mL (≈ 70.1 µM)	< 10 nM	N#CC[C@H]1CN(c2nc(OC[C@@]34CCCN3C[C@H](F)C4)nc3c(F)c(-c4cccc(Cl)c4C4CC4)ncc23)CCN1C(=O)/C=C/CN1CCCOCC1 [Compound 112, 2-((S)-1-((E)-4-(1,4-oxazepan-4-yl)but-2-enoyl)-4-(7-(3-chloro-2-cyclopropylphenyl)-8-fluoro-2-(((2R,7aS)-2-fluorotetrahydro-1H-pyrrolizin-7a(5H)-yl)methoxy)pyrido[4,3-d]pyrimidin-4-yl)piperazin-2-yl)acetonitrile]
2.35	121 µg/mL (≈ 168 µM)	< 10 nM	CN(C)C/C=C/C(=O)N1CCN(c2nc(OC[C@@]34CCCN3C[C@H](F)C4)nc3c(F)c(-c4cccc(Cl)c4C(F)(F)F)ncc23)C[C@@H]1CC#N [Compound 114, 2-((S)-4-(7-(3-chloro-2-(trifluoromethyl)phenyl)-8-fluoro-2-(((2R,7aS)-2-fluorotetrahydro-1H-pyrrolizin-7a(5H)-yl)methoxy)pyrido[4,3-d]pyrimidin-4-yl)-1-((E)-4-(dimethylamino)but-2-enoyl)piperazin-2-yl)acetonitrile]
